# Results published in ChEMBL document CHEMBL1121521, “Inhibitors of Bacillus subtilis DNA polymerase III. 6-Anilinouracils and 6-(alkylamino)uracils” (J Med Chem, 1980).
# Tests used:
# [1] = target: T1, DNA polymerase III PolC-type (Bacillus subtilis (strain 168), UniProt P13267); test: Inhibition against Bacillus subtilis DNA polymerase III (wild type)
# Target sequence in this assay (P13267 whole entry): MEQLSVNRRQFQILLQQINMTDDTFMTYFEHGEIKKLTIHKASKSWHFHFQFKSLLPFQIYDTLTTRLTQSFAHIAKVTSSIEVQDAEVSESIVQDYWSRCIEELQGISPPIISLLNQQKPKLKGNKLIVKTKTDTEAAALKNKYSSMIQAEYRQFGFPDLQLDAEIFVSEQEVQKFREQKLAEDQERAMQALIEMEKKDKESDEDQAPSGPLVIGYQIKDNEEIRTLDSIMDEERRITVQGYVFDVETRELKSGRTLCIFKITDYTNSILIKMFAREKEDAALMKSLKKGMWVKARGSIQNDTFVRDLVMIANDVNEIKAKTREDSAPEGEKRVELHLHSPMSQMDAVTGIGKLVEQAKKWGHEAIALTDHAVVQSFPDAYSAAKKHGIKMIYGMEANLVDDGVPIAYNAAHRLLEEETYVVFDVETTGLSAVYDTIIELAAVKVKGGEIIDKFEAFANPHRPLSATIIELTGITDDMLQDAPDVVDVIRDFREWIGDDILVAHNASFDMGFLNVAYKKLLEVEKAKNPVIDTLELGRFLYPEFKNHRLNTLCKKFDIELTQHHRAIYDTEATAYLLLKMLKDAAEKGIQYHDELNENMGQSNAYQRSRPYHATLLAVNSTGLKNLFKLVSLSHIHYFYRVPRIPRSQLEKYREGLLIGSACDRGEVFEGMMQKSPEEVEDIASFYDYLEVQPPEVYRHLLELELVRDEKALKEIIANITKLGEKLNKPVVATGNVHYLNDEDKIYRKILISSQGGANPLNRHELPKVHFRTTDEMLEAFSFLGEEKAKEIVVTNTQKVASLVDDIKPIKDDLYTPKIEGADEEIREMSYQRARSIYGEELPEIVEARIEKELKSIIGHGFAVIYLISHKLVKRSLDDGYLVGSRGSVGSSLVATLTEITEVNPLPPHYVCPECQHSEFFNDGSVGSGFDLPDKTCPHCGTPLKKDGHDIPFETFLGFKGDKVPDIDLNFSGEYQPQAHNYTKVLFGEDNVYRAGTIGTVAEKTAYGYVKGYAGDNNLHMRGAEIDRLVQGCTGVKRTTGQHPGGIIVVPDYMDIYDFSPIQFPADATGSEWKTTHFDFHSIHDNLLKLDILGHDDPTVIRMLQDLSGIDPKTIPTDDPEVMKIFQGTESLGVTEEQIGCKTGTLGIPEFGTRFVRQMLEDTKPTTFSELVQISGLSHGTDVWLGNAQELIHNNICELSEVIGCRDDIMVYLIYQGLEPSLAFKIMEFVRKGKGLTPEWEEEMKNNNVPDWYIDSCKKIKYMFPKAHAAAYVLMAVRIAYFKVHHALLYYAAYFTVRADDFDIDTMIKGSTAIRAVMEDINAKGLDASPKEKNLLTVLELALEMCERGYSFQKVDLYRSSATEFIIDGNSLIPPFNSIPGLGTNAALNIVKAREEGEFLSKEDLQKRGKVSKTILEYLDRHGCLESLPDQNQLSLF
# [2] = target: T1, DNA polymerase III PolC-type; test: Inhibition against Bacillus subtilis DNA Polymerase III/azp-12(mutant)
# Target sequence in this assay (P13267 whole entry, looked up): as the sequence (P13267 whole entry) above
# [3] = target: DNA polymerase III PolC-type (Bacillus subtilis (strain 168)) (UniProt P13267); test: Degree of resistance is the ratio between inhibition of Bacillus subtilis DNA Polymerase III azp-12 and WT.
# DNA polymerase III PolC-type (Bacillus subtilis (strain 168)), sequence (P13267 whole entry): as above
# [4] = target: T1, DNA polymerase III PolC-type; test: In vitro inhibition of Bacillus subtilis DNA Polymerase III/azp-12(mutant).
# Target sequence in this assay (P13267 whole entry, looked up): as the sequence (P13267 whole entry) above
# [5] = target: T1, DNA polymerase III PolC-type; test: Inhibition of Bacillus subtilis DNA polymerase III (wild type)
# Target sequence in this assay (P13267 whole entry): as above
# [6] = target: T1, DNA polymerase III PolC-type; test: Inhibition of Bacillus subtilis DNA polymerase III (wild type); NA = inactive (<10% inhibition at 1000 uM)
# Target sequence in this assay (P13267 whole entry): as above
# [7] = target: T1, DNA polymerase III PolC-type; test: Inhibition of Bacillus subtilis […](wild type); NA = inactive (<10% inhibition at 1000 uM)
# Target sequence in this assay (P13267 whole entry): as above
# [8] = target: T1, DNA polymerase III PolC-type; test: Inhibition against Bacillus subtilis DNA Polymerase III/azp-12(mutant);NA = inactive (<10% inhibition at 1000 uM)
# Target sequence in this assay (P13267 whole entry, looked up): as the sequence (P13267 whole entry) above
SMILES,Ki [1],Degree of resistance [3],other results
Cc1cc(Nc2cc(=O)[nH]c(=O)[nH]2)ccc1N,19 µM,,Ki [2]: 158 µM
CCCc1ccc(Nc2cc(O)nc(O)n2)cc1,,0.12,
O=c1cc(Nc2ccc(Cl)cc2)[nH]c(=O)[nH]1,,0.56,
Oc1cc(Nc2cccc(Cl)c2)nc(O)n1,25 µM,1.7,Ki [4]: 41.7 µM
CCCCCNc1cc(=O)[nH]c(=O)[nH]1,,,Ki [5]: 335 µM
Cc1ccccc1Nc1cc(O)nc(O)n1,,,Ki [6]: Not Active
CCNc1cc(O)nc(O)n1,,,Ki [7]: Not Active
Cc1ccc(Nc2cc(O)nc(O)n2)cc1,,3.9,
Cc1cccc(Nc2cc(O)nc(O)n2)c1,,4.2,
O=c1cc(Nc2cccc(CO)c2)[nH]c(=O)[nH]1,413 µM,,Ki [4]: 5130 µM
Cc1ccc(Nc2cc(O)nc(O)n2)cc1C,0.92 µM,3.9,Ki [4]: 3.5 µM
CCc1ccc(Nc2cc(O)nc(O)n2)cc1,,0.3,
OCc1cccc(Nc2cc(O)nc(O)n2)c1,,12.4,
CCCCc1ccc(Nc2cc(O)nc(O)n2)cc1,,0.4,
Oc1cc(Nc2ccc(Br)cc2)nc(O)n1,,0.13,
Oc1cccc(Nc2cc(O)nc(O)n2)c1,2630 µM,,Ki [8]: Not Active
Cc1ccc(Nc2cc(=O)[nH]c(=O)[nH]2)cc1N,122 µM,,Ki [2]: 298 µM

SMILES,Ki [1],Degree of resistance [3],other results
CCCCNc1cc(O)nc(O)n1,,,Ki [5]: 5370 µM
Nc1ccc(Nc2cc(=O)[nH]c(=O)[nH]2)cc1,640 µM,,Ki [2]: 3900 µM
Oc1ccc(Nc2cc(O)nc(O)n2)cc1,,2.2,
OCc1ccc(Nc2cc(O)nc(O)n2)cc1,,0.6,
Oc1cc(Nc2cccc(I)c2)nc(O)n1,,4.3,
CCCc1ccc(Nc2cc(=O)[nH]c(=O)[nH]2)cc1,452 µM,,Ki [4]: 54 µM
Cc1cccc(Nc2cc(=O)[nH]c(=O)[nH]2)c1,42.8 µM,,Ki [4]: 178 µM
Cc1cc(Nc2cc(O)nc(O)n2)ccc1Br,,0.85,
CCc1ccccc1Nc1cc(O)nc(O)n1,,,Ki [7]: Not Active
CCCNc1cc(O)nc(O)n1,,,Ki [6]: Not Active
COc1ccc(Nc2cc(O)nc(O)n2)cc1,120 µM,1,Ki [4]: 120 µM
CCc1cccc(Nc2cc(O)nc(O)n2)c1,,6.4,
C=CCNc1cc(O)nc(O)n1,,,Ki [5]: 22400 µM
CC(C)c1ccc(Nc2cc(O)nc(O)n2)cc1,,0.065,
CCCCCCCCCCNc1cc(O)nc(O)n1,,,Ki [7]: Not Active
Cc1cc(C)c(Nc2cc(O)nc(O)n2)c(C)c1,,,Ki [7]: Not Active
Oc1cc(Nc2cccc(Br)c2)nc(O)n1,10.3 µM,2.1,Ki [4]: 21.9 µM

# Further lines, with some results ahead:
Ki [1],SMILES,Degree of resistance [3],other results
124 µM,Cc1cc(C)cc(Nc2cc(=O)[nH]c(=O)[nH]2)c1,,
0.38 µM,Cc1ccc(Nc2cc(=O)[nH]c(=O)[nH]2)cc1I,,
1990 µM,Cc1ccc(Nc2cc(O)nc(O)n2)c(C)c1,,
0.42 µM,Oc1cc(Nc2ccc3c(c2)CCC3)nc(O)n1,,
2400 µM,CC(C)CCNc1cc(=O)[nH]c(=O)[nH]1,,
0.93 µM,Oc1cc(Nc2ccc(Cl)c(Cl)c2)nc(O)n1,,
223 µM,Cc1cccc(Nc2cc(=O)[nH]c(=O)[nH]2)c1C,,
101 µM,O=c1cc(Nc2ccc(C(F)(F)F)cc2)[nH]c(=O)[nH]1,,
82.6 µM,O=c1cc(Nc2cccc3ccccc23)[nH]c(=O)[nH]1,,
78.5 µM,Cc1ccc(Nc2cc(=O)[nH]c(=O)[nH]2)cc1CO,,
7.6 µM,O=c1cc(Nc2cccc(CCl)c2)[nH]c(=O)[nH]1,,
464 µM,CC(=O)Nc1ccc(Nc2cc(=O)[nH]c(=O)[nH]2)cc1C,,
0.63 µM,Cc1ccc(Nc2cc(O)nc(O)n2)cc1Cl,,
6.8 µM,O=c1cc(Nc2ccc3ccccc3c2)[nH]c(=O)[nH]1,,
460 µM,CC(=O)Nc1cc(Nc2cc(O)nc(O)n2)ccc1C,,
370 µM,CCCCCCNc1cc(=O)[nH]c(=O)[nH]1,,
13500 µM,O=c1cc(NCCCCCO)[nH]c(=O)[nH]1,,
0.26 µM,Cc1ccc(Nc2cc(O)nc(O)n2)cc1CCl,,
1360 µM,Cc1ccc(C)c(Nc2cc(O)nc(O)n2)c1,,
